Measurements from PMC9492542, “Brain-restricted mTOR inhibition with binary pharmacology” (Nature, 2022).
Where “and” joins values, the source holds several entries; their conditions need not be identical. Identical values can stand only once. Like-named read-outs stand apart in the source and are kept apart here.

Legend:
FKBP12 = molecular target: T1, FKBP12 (Homo sapiens, UniProt P62942); experiment: Competition fluorescence polarization assay with FITC-rapamycin tracer; assay type: binding
T1 construct: His-tag (HRV 3C cleavable) (cleaved yes); made in house; host or cells: Escherichia coli BL21(DE3)
T1 sequence (P62942 whole entry): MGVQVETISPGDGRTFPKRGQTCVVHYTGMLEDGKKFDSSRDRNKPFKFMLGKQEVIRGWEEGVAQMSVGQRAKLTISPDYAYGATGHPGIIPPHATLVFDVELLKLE
Procedure: Compound binding affinity was determined using a competition fluorescence polarization assay. […] The assay buffer was 20 mM HEPES pH 7.5 and 0.01% Triton X-100. […] Data were fitted to a three-parameter sigmoidal curve to derive IC50 values. Ki of the compounds were calculated using a tool provided by S. Wang’s laboratory (http://www.umich.edu/~shaomengwanglab/software/calc_ki/index.html). Data were plotted in GraphPad Prism 9.0.

LRRK2 = LRRK2 (Mus musculus, UniProt Q5S006); experiment: Phospho-LRRK2 (S935) quantification by TR-FRET in RAW264.7 cells; details: replicate raw data, 0 nM = 100
Sequence of LRRK2 (Q5S006 whole entry): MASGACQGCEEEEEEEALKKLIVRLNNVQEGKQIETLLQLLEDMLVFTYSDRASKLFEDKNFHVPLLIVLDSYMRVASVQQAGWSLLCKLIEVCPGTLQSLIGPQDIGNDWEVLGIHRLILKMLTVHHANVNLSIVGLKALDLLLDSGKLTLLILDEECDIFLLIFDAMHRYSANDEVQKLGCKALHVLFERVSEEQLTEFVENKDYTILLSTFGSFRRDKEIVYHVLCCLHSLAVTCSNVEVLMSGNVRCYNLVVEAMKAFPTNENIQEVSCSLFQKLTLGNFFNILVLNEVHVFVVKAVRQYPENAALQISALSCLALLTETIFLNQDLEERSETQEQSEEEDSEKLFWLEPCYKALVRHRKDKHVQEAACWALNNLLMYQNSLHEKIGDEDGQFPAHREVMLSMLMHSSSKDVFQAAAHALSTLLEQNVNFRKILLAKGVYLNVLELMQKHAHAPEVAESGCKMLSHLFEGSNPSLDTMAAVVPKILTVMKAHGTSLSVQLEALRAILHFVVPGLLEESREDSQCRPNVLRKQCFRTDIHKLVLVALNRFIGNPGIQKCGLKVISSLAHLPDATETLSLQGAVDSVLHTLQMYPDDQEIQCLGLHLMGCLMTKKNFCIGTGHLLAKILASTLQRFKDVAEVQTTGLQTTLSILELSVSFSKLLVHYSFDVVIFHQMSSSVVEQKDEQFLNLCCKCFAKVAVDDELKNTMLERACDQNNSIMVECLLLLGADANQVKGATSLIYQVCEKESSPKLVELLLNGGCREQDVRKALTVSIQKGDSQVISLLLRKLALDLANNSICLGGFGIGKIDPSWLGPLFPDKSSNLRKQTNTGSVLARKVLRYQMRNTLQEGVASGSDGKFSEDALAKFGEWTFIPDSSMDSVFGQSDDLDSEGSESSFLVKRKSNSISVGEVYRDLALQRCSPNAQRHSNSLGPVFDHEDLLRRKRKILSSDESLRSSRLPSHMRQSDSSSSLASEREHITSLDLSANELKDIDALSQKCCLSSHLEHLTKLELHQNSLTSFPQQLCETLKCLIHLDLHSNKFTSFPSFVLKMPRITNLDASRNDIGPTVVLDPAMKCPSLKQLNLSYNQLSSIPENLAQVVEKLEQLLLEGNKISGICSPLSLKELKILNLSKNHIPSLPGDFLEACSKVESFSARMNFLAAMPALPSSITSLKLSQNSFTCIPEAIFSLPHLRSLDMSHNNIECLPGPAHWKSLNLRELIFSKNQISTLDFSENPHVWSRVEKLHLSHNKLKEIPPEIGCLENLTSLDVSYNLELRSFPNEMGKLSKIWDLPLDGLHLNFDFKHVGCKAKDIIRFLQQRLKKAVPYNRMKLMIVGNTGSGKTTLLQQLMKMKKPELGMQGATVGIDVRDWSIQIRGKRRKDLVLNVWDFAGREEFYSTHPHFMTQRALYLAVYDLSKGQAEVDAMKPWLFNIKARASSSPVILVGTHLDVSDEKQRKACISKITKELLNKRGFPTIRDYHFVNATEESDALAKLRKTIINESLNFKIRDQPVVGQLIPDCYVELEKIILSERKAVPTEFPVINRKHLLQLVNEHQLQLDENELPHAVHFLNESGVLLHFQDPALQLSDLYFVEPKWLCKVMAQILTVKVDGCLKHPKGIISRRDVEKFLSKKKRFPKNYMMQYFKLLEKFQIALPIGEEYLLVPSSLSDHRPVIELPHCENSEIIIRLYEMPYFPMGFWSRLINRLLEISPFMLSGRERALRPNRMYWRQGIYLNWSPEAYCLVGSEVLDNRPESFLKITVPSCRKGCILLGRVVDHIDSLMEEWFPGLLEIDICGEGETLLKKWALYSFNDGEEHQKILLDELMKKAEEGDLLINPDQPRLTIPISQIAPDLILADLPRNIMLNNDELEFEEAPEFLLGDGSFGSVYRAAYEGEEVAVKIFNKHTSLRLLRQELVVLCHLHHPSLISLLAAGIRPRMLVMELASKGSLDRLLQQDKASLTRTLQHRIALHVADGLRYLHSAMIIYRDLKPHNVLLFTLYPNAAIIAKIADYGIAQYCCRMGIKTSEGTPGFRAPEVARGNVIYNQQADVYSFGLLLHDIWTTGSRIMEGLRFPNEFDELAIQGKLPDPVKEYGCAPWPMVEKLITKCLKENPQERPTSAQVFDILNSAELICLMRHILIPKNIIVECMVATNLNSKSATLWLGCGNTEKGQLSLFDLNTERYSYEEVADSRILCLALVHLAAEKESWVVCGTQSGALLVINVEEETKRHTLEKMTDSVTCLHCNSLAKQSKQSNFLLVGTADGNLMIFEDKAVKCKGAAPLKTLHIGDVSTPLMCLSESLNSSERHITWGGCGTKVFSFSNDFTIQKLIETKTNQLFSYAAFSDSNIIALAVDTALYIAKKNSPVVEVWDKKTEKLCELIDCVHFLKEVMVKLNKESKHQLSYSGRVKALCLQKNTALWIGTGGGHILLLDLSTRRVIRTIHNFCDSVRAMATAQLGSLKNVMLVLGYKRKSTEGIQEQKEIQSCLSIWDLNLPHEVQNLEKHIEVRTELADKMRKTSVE
Procedure: Phospho-LRRK2 (S935) was quantified in drug-treated cells using a Phospho-LRRK2 (Ser935) cellular kit (Cisbio) following the manufacturer’s instructions. […] Cells were treated with compounds at the indicated concentrations for 2 h. Medium was removed by aspiration and the cells were rinsed with ice-cold PBS (1 ml). Cells were lysed with 100 µl Cisbio 1X lysis buffer at 23 °C directly in plate for 30 min. […] Clarified lysate (16 µl) was dispensed into one well of a low-volume, round-bottom 384-well plate, and 4 µl LRRK2–phospho-LRRK2 (S935) antibody master mix (Cisbio) was added to each well. The plate was incubated at 23 °C for 4 h.
The TR-FRET signal was calculated as the ratio fluorescence intensity [read B]/[read A].

[1] = recombinant FKBP12, Extended Data Fig. 2, read-out: Kd (FKBP12)

`CCC(C)(C)C(=O)C(=O)N1CCCC[C@H]1C(=O)O[C@H](CCc1ccc(OC)c(OC)c1)c1cccc(NC(=O)CN(C)C)c1` [Compound 01-044] gave a Kd (FKBP12; [1]) of 13 nM.
In the case of `CO[C@H]1C[C@@H](C)C/C(C)=C/[C@@H](C/C=C/c2ccncc2)C(=O)C[C@H](O)[C@@H](C)[C@@H](/C(C)=C/[C@@H]2CC[C@@H](O)[C@H](OC)C2)OC(=O)[C@@H]2CCCCN2C(=O)C(=O)[C@]2(O)O[C@H]1[C@@H](OC)C[C@H]2C` [Compound 05-051], the Kd (FKBP12; [1]) is reported as 1.2 nM.
With `CCNc1nc(Nc2cc(F)c(C(=O)N3CCOCC3)cc2OC)ncc1C(F)(F)F` [GNE-7915] the “P-LRRK2(S935) in RAW264.7 cells” value (LRRK2; Conc 0.457247 nM) was 93.9 and 94 and 94.8, the “P-LRRK2(S935) in RAW264.7 cells” value (LRRK2; Conc 1.37174 nM) was 113.4 and 112.1 and 104.8 and the “P-LRRK2(S935) in RAW264.7 cells” value (LRRK2; Conc 4.11523 nM) was 116.1 and 116.6 and 114.3. The “P-LRRK2(S935) in RAW264.7 cells” value (LRRK2; Conc 12.3457 nM) was 104.6 and 91.1 and 91.3, the “P-LRRK2(S935) in RAW264.7 cells” value (LRRK2; Conc 37.037 nM) was 75.2 and 70.5 and 70.4 and the “P-LRRK2(S935) in RAW264.7 cells” value (LRRK2; Conc 111.111 nM) was 43.3 and 40.8 and 41. The “P-LRRK2(S935) in RAW264.7 cells” value (LRRK2; Conc 333.333 nM) was 26.6 and 22.6 and 23.5 and the “P-LRRK2(S935) in RAW264.7 cells” value (LRRK2; Conc 1000 nM) was 17.7 and 14.2 and 15.7.
Work on `CCC(C)(C)C(=O)C(=O)N1CCCC[C@H]1C(=O)O[C@H](CCc1ccc(OC)c(OC)c1)c1cccc(NC(=O)CN2CCN(C)CC2)c1` [Compound 01-072] yielded a Kd (FKBP12; [1]) of 13 nM.
For `CCC(C)(C)C(=O)C(=O)N1CCCC[C@H]1C(=O)O[C@H](CCc1ccc(OC)c(OC)c1)c1cccc(NC(=O)CS)c1` [Compound 02-055], the Kd (FKBP12; [1]) was 64 nM.
`CO[C@H]1C[C@@H](C)C/C(C)=C/[C@@H](CCCc2ccncc2)C(=O)C[C@H](O)[C@@H](C)[C@@H](/C(C)=C/[C@@H]2CC[C@@H](O)[C@H](OC)C2)OC(=O)[C@@H]2CCCCN2C(=O)C(=O)[C@]2(O)O[C@H]1[C@@H](OC)C[C@H]2C` [Compound 05-085] showed a Kd (FKBP12) of 1.5 nM.
